Test results taken from patent US5637731A (priority 1996, dated 1997).

Columns and labels:
[1] = tested on: peripheral acetylcholine-like effects; assay: Side effect profile: in vivo overt effects (salivation, tremor, diarrhea) after oral administration; parameters: species or system rat; details: (rat) po
Description: The use of the radioligand binding assays (^3 H-QNB and ^3 H-CD) to characterize the hydroxylated oxotremorine derivatives provides a useful first approximation for,the evaluation of the muscarinic agonist-like profile of a test compound. However, in using a prodrug methodology, intrinsic activity will not be observed until in vivo hydrolysis or metabolism to the active compound occurs. Therefore, radioligand binding data, performed on the carbonyl derivatives, will not provide leading information. As a result, the observed overt effects after oral administration to rats of the test carbonyl derivative, relative to its corresponding hydroxylated oxotremorine compound, became the primary in vivo pharmacological measure. These in vivo overt effects are attributed to the peripheral acetylcholine-like effects of the compound, such as salivation, tremor and diarrhea. The in vivo overt effects also providing dosing information for the behavioral tests of cognitive improvement.

[2] = Stability remark in Table V; assay type: physicochemical; details: in place of the optical rotation
SDAT patients = details: cited from earlier work

| SMILES | Side Effect Profile minimum effective dose (MED) [1] [μ mol/kg] | other results |
| --- | --- | --- |
| CCCCCCCC(=O)O[C@@H]1CCN(CC#CCN2CCCC2)C1=O [(R)-Octanoic acid 2-oxo-1-[4-(1-pyrrolidinyl)-2-butynyl]-3-pyrrolidinyl ester] | 14 | – |
| CCOC(=O)O[C@H]1CCN(CC#CCN(C)C)C1=O [(S)-1-[4-(Dimethylamino)-2-butynyl]-2-oxo-3-pyrrolidinyl carbonic acid ethyl ester] | 2.2 | – |
| CCCCOC(=O)O[C@H]1CCN(CC#CCN2CCCC2)C1=O [(S)-2-Oxo-1-[4-(1-pyrrolidinyl)-2-butynyl]-3-pyrrolidinyl carbonic acid butyl ester] | 0.9 | – |
| CCOC(=O)O[C@H]1CCN(CC#CCN2CCCC2)C1=O [(S)-2-Oxo-1-[4-(1-pyrrolidinyl)-2-butynyl]-3-pyrrolidinyl carbonic acid ethyl ester] | 1.7 | – |
| CCCCCCCCOC(=O)O[C@H]1CCN(CC#CCN2CCCC2)C1=O [(S)-2-Oxo-1-[4-(1-pyrrolidinyl)-2-butynyl]-3-pyrrolidinyl carbonic acid octyl ester] | 28 | – |
| CCCC(=O)O[C@H]1CCN(CC#CCN(C)C)C1=O [(S)-Butanoic acid 1-[4-(dimethylamino)-2-butynyl]-2-oxo-3-pyrrolidinyl ester] | 8.0 | – |
| CCCC(=O)O[C@H]1CCN(CC#CCN2CCCC2)C1=O [(S)-Butanoic acid 2-oxo-1-[4-(1-pyrrolidinyl)-2-butynyl]-3-pyrrolidinyl ester] | 1.7 | – |
| CCCCNC(=O)O[C@H]1CCN(CC#CCN2CCCC2)C1=O [(S)-Butylcarbamic acid 1-2-oxo-[4-(1-pyrrolidinyl)-2-butynyl]-3-pyrrolidinyl ester] | 225 | – |
| CCCCNC(=O)O[C@H]1CCN(CC#CCN(C)C)C1=O [(S)-Butylcarbamic acid 1-[4-(dimethylamino)-2-butynyl]-2-oxo-3-pyrrolidinyl ester] | > 493 | – |
| CCCCCCCCCC(=O)O[C@H]1CCN(CC#CCN2CCCC2)C1=O [(S)-Decanoic acid 2-oxo-1-[4-(1-pyrrolidinyl)-2-butynyl]-3-pyrrolidinyl ester] | 14 | – |
| CCNC(=O)O[C@H]1CCN(CC#CCN(C)C)C1=O [(S)-Ethylcarbamic acid 1-[4-(dimethylamino)-2-butynyl]-2-oxo-3-pyrrolidinyl ester] | > 510 | – |
| CCNC(=O)O[C@H]1CCN(CC#CCN2CCCC2)C1=O [(S)-Ethylcarbamic acid 2-oxo-1-[4-(1-pyrrolidinyl)-2-butynyl]-3-pyrrolidinyl ester] | > 490 | – |
| CCCCCC(=O)O[C@H]1CCN(CC#CCN(C)C)C1=O [(S)-Hexanoic acid 1-[4-(dimethylamino)-2-butynyl]-2-oxo-3-pyrrolidinyl ester] | 5.9 | – |
| CCCCCC(=O)O[C@H]1CCN(CC#CCN2CCCC2)C1=O [(S)-Hexanoic acid 2-oxo-1-[4-(1-pyrrolidinyl)-2-butynyl]-3-pyrrolidinyl ester] | 1.8 | – |
| CCCCCCNC(=O)O[C@H]1CCN(CC#CCN(C)C)C1=O [(S)-Hexylcarbamic acid 1-[4-(dimethylamino)-2-butynyl]-2-oxo-3-pyrrolidinyl ester] | > 510 | – |
| CCCCCCNC(=O)O[C@H]1CCN(CC#CCN2CCCC2)C1=O [(S)-Hexylcarbamic acid 2-oxo-1-[4-(1-pyrrolidinyl)-2-butynyl]-3-pyrrolidinyl ester] | > 450 | – |
| CCCCCCCC(=O)O[C@H]1CCN(CC#CCN(C)C)C1=O [(S)-Octanoic acid 1-[4-(dimethylamino)-2-butynyl]-2-oxo-3-pyrrolidinyl ester] | 8.0 | – |
| CCCCCCCCNC(=O)O[C@H]1CCN(CC#CCN(C)C)C1=O [(S)-Octylcarbamic acid 1-[4-(dimethylamino)-2-butynyl]-2-oxo-3-pyrrolidinyl ester] | > 520 | – |
| CCCCCCCCNC(=O)O[C@H]1CCN(CC#CCN2CCCC2)C1=O [(S)-Octylcarbamic acid 2-oxo-1-[4-(1-pyrrolidinyl)-2-butynyl]-3-pyrrolidinyl ester] | > 450 | – |
| O=C1[C@@H](O)CCN1CC#CCN1CCC1 [Example 31, (S)-3-Hydroxy-1-[4-(1-azetidinyl)-2-butynyl]-2-pyrrolidinone] | – | stability (in words) [2]: not stable |
| O=C1[C@H](O)CCN1CC#CCN1CCC1 [Example 33, (R)-3-Hydroxy-1-[4-(1-azetidinyl)-2-butynyl]-2-pyrrolidinone] | – | stability (in words) [2]: not stable |
| COC(=O)C1=CCCN(C)C1 [arecoline] | – | improvement in SDAT patients compared to physostigmine (SDAT patients): more consistent improvement when compared to the anticholinergic inhibitor physostigmine |
